Reference: article PMC3494675, “Structure-Function Analysis of the Glioma Targeting NFL-TBS.40-63 Peptide Corresponding to the Tubulin-Binding Site on the Light Neurofilament Subunit” (PLoS ONE, 2012)
Peptide text beside a SMILES is read from it. * marks the point of attachment. Biotin = O=C1N[C@H]2[C@H](CS[C@H]2CCCCC(=O)*)N1

Experiments:
[1] = system: T98G human glioblastoma cells; test: Peptide incorporation into T98G cells (immunocytochemistry, cell counting); assay type: cell-based; conditions: 6 hours; for Peptide incorporation (% of cells): T98G cells, 10 µM biotinylated peptide, Alexa-labeled avidin/streptavidin fluorescence microscopy, minimum 200 cells per experiment, mean ± S.E.M., triplicated; for Cell penetration / internalization in T98G cells (in words): 10 µM, immunocytochemistry, compared to original NFL-TBS.40-63
Protocol: (§1) Cells containing the biotinylated peptide were detected using Alexa-labeled avidin (green fluorescence) and those displaying a normal or a destroyed MT network were detected with an anti-tubulin antibody (red fluorescence) ( Figure 1A-B ). Then, we counted a minimum of 200 cells per slide containing or not the peptide, and with a normal or destroyed microtubule network ( Figure 1C ). As illustrated on Figure 1A glioblastoma cells contain a rich MT network. […] Cells were plated on cover slips and cultured in media containing biotinylated peptides (10 μM) for 6 hours. […] The cells were then incubated during 10 min in a 0.5% triton X-100 permeabilization solution, and washed 3 times in PBS. Next, they were incubated in a blocking solution (PBS 5% BSA) for 15 min, then incubated with mouse anti-ß-tubulin antibody (Sigma) 1/200 overnight. Tubulin and biotinylated peptides were localized using respectively Alexa 568 nm anti-mouse antibody and streptavidin Alexa 488 nm (Molecular Probes) 1/200 for 1 hour, followed by washing in PBS. […] Sigma) for 5 min, washed twice with PBS, then cover slips were mounted with an antifading solution. Observations were performed with an Olympus confocal microscope (BX50) using Fluoview.3.1. Software or a Leica DMI6000 inverted microscope and analyzed with Metamorph 7.1.7.0. software. We counted cells containing the peptide and cells displaying a destroyed MT network. Experiments were repeated at least three times, and a minimum of 200 cells was scored during each experiment.

[2] = system: T98G human glioblastoma cells; test: Disintegration of the microtubule network in T98G cells (anti-tubulin immunostaining, cell counting); assay type: cell-based; conditions: 6 hours; for Disintegration of MT (% of cells): T98G cells, 10 µM biotinylated peptide, anti-tubulin immunostaining, minimum 200 cells per experiment, mean ± S.E.M., triplicated; for Effect on MT network of T98G / glioma cells (in words): 10 µM, immunocytochemistry
Protocol: as §1

Row | Compound | Peptide incorporation (% of cells) [1] | Disintegration of MT (% of cells) [2] | Cell penetration / internalization in T98G cells (in words) [1] | Effect on MT network of T98G / glioma cells (in words) [2]
1 | CC(C)C[C@H](NC(=O)[C@H](CO)NC(=O)[C@H](CO)NC(=O)[C@H](CO)NC(=O)[C@@H](NC(=O)[C@@H]1CCCN1C(=O)[C@H](C)NC(=O)[C@H](CO)NC(=O)[C@H](Cc1ccc(O)cc1)NC(=O)[C@H](CO)NC(=O)[C@H](CO)NC(=O)[C@H](Cc1ccc(O)cc1)NC(=O)CCCC[C@@H]1SC[C@@H]2NC(=O)N[C@@H]21)C(C)C)C(=O)N[C@@H](CO)C(=O)N[C@H](C(=O)N[C@@H](CCCNC(=N)N)C(=O)N[C@@H](CCCNC(=N)N)C(=O)N[C@@H](C)C(=O)N[C@@H](Cc1ccc(O)cc1)C(=O)N[C@@H](CO)C(=O)N[C@@H](CO)C(=O)N[C@@H](CO)C(=O)N[C@@H](CO)C(=O)NCC(=O)N[C@@H](CO)C(N)=O)C(C)C [Ser17Ala] (Biotin-YSSYSAPVSSSLSVRRAYSSSSGS-NH2) | 4.6±1.8 % of cells | 18.1±4.4 % of cells | – | –
2 | CC(C)C[C@H](NC(=O)[C@H](CO)NC(=O)[C@H](CO)NC(=O)[C@H](CO)NC(=O)[C@@H](NC(=O)[C@@H]1CCCN1C(=O)[C@H](C)NC(=O)[C@H](CO)NC(=O)[C@H](Cc1ccc(O)cc1)NC(=O)[C@H](CO)NC(=O)[C@H](CO)NC(=O)[C@H](Cc1ccc(O)cc1)NC(=O)CCCC[C@@H]1SC[C@@H]2NC(=O)N[C@@H]21)C(C)C)C(=O)N[C@@H](CO)C(=O)N[C@H](C(=O)N[C@@H](CCCNC(=N)N)C(=O)N[C@@H](CCCNC(=N)N)C(=O)N[C@@H](CC(=O)O)C(=O)N[C@@H](Cc1ccc(O)cc1)C(=O)N[C@@H](CO)C(=O)N[C@@H](CO)C(=O)N[C@@H](CO)C(=O)N[C@@H](CO)C(=O)NCC(=O)N[C@@H](CO)C(N)=O)C(C)C [Ser17Asp] (Biotin-YSSYSAPVSSSLSVRRDYSSSSGS-NH2) | 31.3±11.2 % of cells | 22.2±3.4 % of cells | decreased internalization | not altered
3 | CC(C)C[C@H](NC(=O)[C@H](CO)NC(=O)[C@H](CO)NC(=O)[C@H](CO)NC(=O)[C@@H](NC(=O)[C@@H]1CCCN1C(=O)[C@H](C)NC(=O)[C@H](CO)NC(=O)[C@H](Cc1ccc(O)cc1)NC(=O)[C@H](CO)NC(=O)[C@H](CO)NC(=O)[C@H](Cc1ccc(O)cc1)NC(=O)CCCC[C@@H]1SC[C@@H]2NC(=O)N[C@@H]21)C(C)C)C(=O)N[C@@H](CO)C(=O)N[C@H](C(=O)N[C@@H](CCCNC(=N)N)C(=O)N[C@@H](CCCNC(=N)N)C(=O)N[C@@H](CO)C(=O)N[C@@H](Cc1ccc(O)cc1)C(=O)N[C@@H](C)C(=O)N[C@@H](CO)C(=O)N[C@@H](CO)C(=O)N[C@@H](CO)C(=O)NCC(=O)N[C@@H](CO)C(N)=O)C(C)C [Ser19Ala] (Biotin-YSSYSAPVSSSLSVRRSYASSSGS-NH2) | 5.2±0.7 % of cells | 14.5±2.7 % of cells | – | –
4 | CC(C)C[C@H](NC(=O)[C@H](CO)NC(=O)[C@H](CO)NC(=O)[C@H](CO)NC(=O)[C@@H](NC(=O)[C@@H]1CCCN1C(=O)[C@H](C)NC(=O)[C@H](CO)NC(=O)[C@H](Cc1ccc(O)cc1)NC(=O)[C@H](CO)NC(=O)[C@H](CO)NC(=O)[C@H](Cc1ccc(O)cc1)NC(=O)CCCC[C@@H]1SC[C@@H]2NC(=O)N[C@@H]21)C(C)C)C(=O)N[C@@H](CO)C(=O)N[C@H](C(=O)N[C@@H](CCCNC(=N)N)C(=O)N[C@@H](CCCNC(=N)N)C(=O)N[C@@H](CO)C(=O)N[C@@H](Cc1ccc(O)cc1)C(=O)N[C@@H](CC(=O)O)C(=O)N[C@@H](CO)C(=O)N[C@@H](CO)C(=O)N[C@@H](CO)C(=O)NCC(=O)N[C@@H](CO)C(N)=O)C(C)C [Ser19Asp] (Biotin-YSSYSAPVSSSLSVRRSYDSSSGS-NH2) | 25.2±4.8 % of cells | 19.2±1.5 % of cells | decreased internalization | not altered
5 | CC(C)C[C@H](NC(=O)[C@H](CO)NC(=O)[C@H](CO)NC(=O)[C@H](CO)NC(=O)[C@@H](NC(=O)[C@@H]1CCCN1C(=O)[C@H](C)NC(=O)[C@H](CO)NC(=O)[C@H](Cc1ccc(O)cc1)NC(=O)[C@H](CO)NC(=O)[C@H](CO)NC(=O)[C@H](Cc1ccc(O)cc1)NC(=O)CCCC[C@@H]1SC[C@@H]2NC(=O)N[C@@H]21)C(C)C)C(=O)N[C@@H](CO)C(=O)N[C@H](C(=O)N[C@@H](CCCNC(=N)N)C(=O)N[C@@H](CCCNC(=N)N)C(=O)N[C@@H](CO)C(=O)N[C@@H](Cc1ccc(O)cc1)C(=O)N[C@@H](CO)C(=O)N[C@@H](C)C(=O)N[C@@H](CO)C(=O)N[C@@H](CO)C(=O)NCC(=O)N[C@@H](CO)C(N)=O)C(C)C [Ser20Ala] (Biotin-YSSYSAPVSSSLSVRRSYSASSGS-NH2) | 6.4±1.2 % of cells | 16.4±6.4 % of cells | – | –
6 | CC(C)C[C@H](NC(=O)[C@H](CO)NC(=O)[C@H](CO)NC(=O)[C@H](CO)NC(=O)[C@@H](NC(=O)[C@@H]1CCCN1C(=O)[C@H](C)NC(=O)[C@H](CO)NC(=O)[C@H](Cc1ccc(O)cc1)NC(=O)[C@H](CO)NC(=O)[C@H](CO)NC(=O)[C@H](Cc1ccc(O)cc1)NC(=O)CCCC[C@@H]1SC[C@@H]2NC(=O)N[C@@H]21)C(C)C)C(=O)N[C@@H](CO)C(=O)N[C@H](C(=O)N[C@@H](CCCNC(=N)N)C(=O)N[C@@H](CCCNC(=N)N)C(=O)N[C@@H](CO)C(=O)N[C@@H](Cc1ccc(O)cc1)C(=O)N[C@@H](CO)C(=O)N[C@@H](CO)C(=O)N[C@@H](C)C(=O)N[C@@H](CO)C(=O)NCC(=O)N[C@@H](CO)C(N)=O)C(C)C [Ser21Ala] (Biotin-YSSYSAPVSSSLSVRRSYSSASGS-NH2) | 55.4±5.9 % of cells | 31.6±5.1 % of cells | – | –
7 | CC(C)C[C@H](NC(=O)[C@H](CO)NC(=O)[C@H](CO)NC(=O)[C@H](CO)NC(=O)[C@@H](NC(=O)[C@@H]1CCCN1C(=O)[C@H](C)NC(=O)[C@H](CO)NC(=O)[C@H](Cc1ccc(O)cc1)NC(=O)[C@H](CO)NC(=O)[C@H](CO)NC(=O)[C@H](Cc1ccc(O)cc1)NC(=O)CCCC[C@@H]1SC[C@@H]2NC(=O)N[C@@H]21)C(C)C)C(=O)N[C@@H](CO)C(=O)N[C@H](C(=O)N[C@@H](CCCNC(=N)N)C(=O)N[C@@H](CCCNC(=N)N)C(=O)N[C@@H](CO)C(=O)N[C@@H](Cc1ccc(O)cc1)C(=O)N[C@@H](CO)C(=O)N[C@@H](CO)C(=O)N[C@@H](CO)C(=O)N[C@@H](CO)C(=O)NCC(=O)N[C@@H](C)C(N)=O)C(C)C [Ser24Ala] (Biotin-YSSYSAPVSSSLSVRRSYSSSSGA-NH2) | 44.3±6.7 % of cells | 29.4±0.6 % of cells | – | –
8 | CC(C)C[C@H](NC(=O)[C@H](CO)NC(=O)[C@H](CO)NC(=O)[C@H](CO)NC(=O)[C@@H](NC(=O)[C@@H]1CCCN1C(=O)[C@H](C)NC(=O)[C@H](CO)NC(=O)[C@H](Cc1ccc(O)cc1)NC(=O)[C@H](CO)NC(=O)[C@H](CO)NC(=O)[C@H](C)NC(=O)CCCC[C@@H]1SC[C@@H]2NC(=O)N[C@@H]21)C(C)C)C(=O)N[C@@H](CO)C(=O)N[C@H](C(=O)N[C@@H](CCCNC(=N)N)C(=O)N[C@@H](CCCNC(=N)N)C(=O)N[C@@H](CO)C(=O)N[C@@H](Cc1ccc(O)cc1)C(=O)N[C@@H](CO)C(=O)N[C@@H](CO)C(=O)N[C@@H](CO)C(=O)N[C@@H](CO)C(=O)NCC(=O)N[C@@H](CO)C(N)=O)C(C)C [Tyr1Ala] (Biotin-ASSYSAPVSSSLSVRRSYSSSSGS-NH2) | 0 % of cells | 24.1±4.6 % of cells | – | –
9 | CC(C)C[C@H](NC(=O)[C@H](CO)NC(=O)[C@H](CO)NC(=O)[C@H](CO)NC(=O)[C@@H](NC(=O)[C@@H]1CCCN1C(=O)[C@H](C)NC(=O)[C@H](CO)NC(=O)[C@H](Cc1ccc(O)cc1)NC(=O)[C@H](CO)NC(=O)[C@H](CO)NC(=O)[C@H](Cc1ccccc1)NC(=O)CCCC[C@@H]1SC[C@@H]2NC(=O)N[C@@H]21)C(C)C)C(=O)N[C@@H](CO)C(=O)N[C@H](C(=O)N[C@@H](CCCNC(=N)N)C(=O)N[C@@H](CCCNC(=N)N)C(=O)N[C@@H](CO)C(=O)N[C@@H](Cc1ccc(O)cc1)C(=O)N[C@@H](CO)C(=O)N[C@@H](CO)C(=O)N[C@@H](CO)C(=O)N[C@@H](CO)C(=O)NCC(=O)N[C@@H](CO)C(N)=O)C(C)C [Tyr1Phe] (Biotin-FSSYSAPVSSSLSVRRSYSSSSGS-NH2) | 56.3±2.8 % of cells | 41.2±4.0 % of cells | – | –
